Data taken from ChEMBL document CHEMBL5725965, “Isoxazole derivatives as FXR agonists and methods of use thereof” (2018).

Molecular target: T1, Bile acid receptor (Homo sapiens, UniProt Q96RI1)
T1 sequence (Q96RI1 whole entry): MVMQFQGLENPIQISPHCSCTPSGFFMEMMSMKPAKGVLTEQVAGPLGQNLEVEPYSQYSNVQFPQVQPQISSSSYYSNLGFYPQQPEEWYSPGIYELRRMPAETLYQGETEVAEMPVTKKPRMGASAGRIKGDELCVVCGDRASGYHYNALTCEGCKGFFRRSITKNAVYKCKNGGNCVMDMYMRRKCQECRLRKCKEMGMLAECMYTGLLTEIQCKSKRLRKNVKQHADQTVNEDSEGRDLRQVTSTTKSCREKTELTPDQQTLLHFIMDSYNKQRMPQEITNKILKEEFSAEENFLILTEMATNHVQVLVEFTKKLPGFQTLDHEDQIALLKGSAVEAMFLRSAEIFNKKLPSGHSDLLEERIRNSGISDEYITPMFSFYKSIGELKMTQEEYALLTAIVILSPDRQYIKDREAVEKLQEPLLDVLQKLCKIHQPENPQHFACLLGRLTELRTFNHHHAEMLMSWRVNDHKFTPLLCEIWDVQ
Assay: FXR Reporter Assay kit purchased from Indigo Bioscience (Catalogue number: IB00601) to determine the potency and efficacy of compound developed by Enanta that can induce FXR activation. The principle application of this reporter assay system is to quantify functional activity of human FXR. The assay utilizes non-human mammalian cells, CHO (Chinese hamster ovary) cells engineered to express human NR1H4 protein (referred to as FXR). Reporter cells also incorporate the cDNA encoding beetle luciferase which catalyzes the substrates and yields photon emission. Luminescence intensity of the reaction is quantified using a plate-reading luminometer, Envision. Reporter Cells include the luciferase reporter gene functionally linked to an FXR responsive promoter. Thus, quantifying changes in luciferase expression in the treated reporter cells provides a sensitive surrogate measure of the changes in FXR activity. […] The assay is according to the manufacturer's instructions. In brief, the assay was performed in white, 96 well plates using final volume of 100 μl containing cells with different doses of compounds. Retrieve Reporter Cells from −80° C. storage. Perform a rapid thaw of the frozen cells by transferring a 10 ml volume of 37° C. cell recovery medium into the tube of frozen cells. Recap the tube of Reporter Cells and immediately place it in a 37° C. water bath for 5-10 minutes. […]
Format: cell-based

## CN(C)S(=O)(=O)NC(=O)c1ccc2nc(N3C4CC[C@H]3C[C@H](OCc3c(-c5c(Cl)cccc5Cl)noc3C3CC3)C4)sc2c1
  EC50: < 0.1 µM
